Assay type in all cases: biochemical
In assay [1] the target is T1, mouse PDGF-β receptor tyrosine kinase (Mus musculus, UniProt P05622).
T1 construct: a fragment of DNA that codes for the intracellular tyrosine kinase domain; made in house; host or cells: Sf9 insect cells (baculovirus), cell lysate
As to the kind of experiment: PDGF receptor tyrosine kinase assay. The conditions noted are these: for IC50: read-out: Inhibition of Protein Tyrosine Kinases, PDGF, IC50; for inhibition at 50 µM: read-out: Inhibition of Protein Tyrosine Kinases, PDGF, % Inhibition. An excerpt: (§1) PDGF and FGF Receptor Tyrosine Kinase Assays
(§2) Full length cDNAs for the mouse PDGF-β and human FGF-1 (flg) receptor tyrosine kinases were obtained from J. Escobedo and prepared as described in J. Biol. Chem., 262:1482-1487 (1991), and PCR primers were designed to amplify a fragment of DNA that codes for the intracellular tyrosine kinase domain. The fragment was melded into a baculovirus vector, cotransfected with AcMNPV DNA, and the recombinant virus isolated. SF9 insect cells were infected with the virus to overexpress the protein, and the cell lysate was used for the assay. […] Briefly, to each well was added 82.5 μL of incubation buffer containing 25 mM Hepes (pH 7.0), 150 mM NaCl, 0.1% Triton X-100, 0.2 mM PMSF, 0.2 mM Na3 VO4, 10 mM MnCl2, and 750 μg/mL of Poly (4:1) glutamate-tyrosine followed by 2.5 μL of inhibitor and 5 μL of enzyme lysate (7.5 μg/μL FGF-TK or 6.0 μg/μL PDGF-TK) to initiate the reaction. Following a 10 minute incubation at 25° C., 10 μL of γ^32 P-ATP (0.4 μCi plus 50 μM ATP) was added to each well and samples were incubated for an additional 10 minutes at 25° C. The reaction was terminated by the addition of 100 μL of 30% trichloroacetic acid (TCA) containing 20 mM sodium pyrophosphate and precipitation of material onto glass fiber filter mats (Wallac). […] Nonspecific activity was defined as radioactivity retained on the filters following incubation of samples with buffer alone (no enzyme). Specific enzymatic activity was defined as total activity (enzyme plus buffer) minus nonspecific activity.

Assay [2] deals with T2, human FGF-1 (flg) receptor tyrosine kinase (Homo sapiens, UniProt P11362).
T2 construct: a fragment of DNA that codes for the intracellular tyrosine kinase domain; made in house; host or cells: Sf9 insect cells (baculovirus), cell lysate
T2 sequence (P11362 478-767 limits assumed): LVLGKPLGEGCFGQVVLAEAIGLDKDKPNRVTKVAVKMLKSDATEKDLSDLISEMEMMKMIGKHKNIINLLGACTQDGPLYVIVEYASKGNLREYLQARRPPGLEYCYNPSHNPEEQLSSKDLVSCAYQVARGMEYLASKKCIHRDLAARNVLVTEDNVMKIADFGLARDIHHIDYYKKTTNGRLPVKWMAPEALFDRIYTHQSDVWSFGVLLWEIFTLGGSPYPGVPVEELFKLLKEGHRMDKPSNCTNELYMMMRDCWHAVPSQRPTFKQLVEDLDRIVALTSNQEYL
In words: FGF receptor tyrosine kinase assay. Conditions: read-out: Inhibition of Protein Tyrosine Kinases, FGF, IC50.
Text: as §1, §2

A further assay has as its target T3, C-src kinase (Homo sapiens, UniProt P12931).
T3 construct: made in house; host or cells: baculovirus-infected insect cells
As to the kind of experiment: C-src kinase assay. Conditions: for IC50: read-out: Inhibition of Protein Tyrosine Kinases, C-src, IC50; for inhibition at 50 µM: read-out: Inhibition of Protein Tyrosine Kinases, C-src, % Inhibition. As to the method: V-src and C-src Kinase Assays
V-src or C-src kinase is purified from baculovirus infected insect cell lysates using an antipeptide monoclonal antibody directed against the N-terminal 2-17 amino acids. The antibody, covalently linked to 0.65-μm latex beads, is added to a suspension of insect cell lysis buffer comprised of 150 mM NaCl, 50 mM Tris pH 7.5, 1 mM DTT, 1% NP-40, 2 mM EGTA, 1 mM sodium vanadate, 1 mM PMSF, 1 μg/mL each of leupeptin, pepstatin, and aprotinin. […] At the end of the lysate incubation, the beads are rinsed 3 times in lysis buffer, resuspended in lysis buffer containing 10% glycerol, and frozen. These latex beads are thawed, rinsed three times in assay buffer which is comprised of 40 mM tris pH 7.5, 5 mM MgCl2, and suspended in the same buffer. In a Millipore 96-well plate with a 0.65 μm polyvinylidine membrane bottom are added the reaction components: 10-μL v-src or c-src beads, 10 μL of 2.5 mg/mL poly GluTyr substrate, 5 μM ATP containing 0.2 μCi labeled ^32 P-ATP, 5μL DMSO containing inhibitors or as a solvent control, and buffer to make the final volume 125 μL. The reaction is started at room temperature by addition of the ATP and quenched 10 minutes later by the addition of 125 μL of 30% TCA, 0.1M sodium pyrophosphate for 5 minutes on ice. The plate is then filtered and the wells washed with two 250-μL aliquots of 15% TCA, 0.1M pyrophosphate. The filters are punched, counted in a liquid scintillation counter, and the data examined for inhibitory activity in comparison to a known inhibitor such as erbstatin. The method is described more fully in J. Med. Chem., 37:598-609 (1994).

Where two headings read alike, the source gives them in different places.

T3 sequence (P12931 whole entry): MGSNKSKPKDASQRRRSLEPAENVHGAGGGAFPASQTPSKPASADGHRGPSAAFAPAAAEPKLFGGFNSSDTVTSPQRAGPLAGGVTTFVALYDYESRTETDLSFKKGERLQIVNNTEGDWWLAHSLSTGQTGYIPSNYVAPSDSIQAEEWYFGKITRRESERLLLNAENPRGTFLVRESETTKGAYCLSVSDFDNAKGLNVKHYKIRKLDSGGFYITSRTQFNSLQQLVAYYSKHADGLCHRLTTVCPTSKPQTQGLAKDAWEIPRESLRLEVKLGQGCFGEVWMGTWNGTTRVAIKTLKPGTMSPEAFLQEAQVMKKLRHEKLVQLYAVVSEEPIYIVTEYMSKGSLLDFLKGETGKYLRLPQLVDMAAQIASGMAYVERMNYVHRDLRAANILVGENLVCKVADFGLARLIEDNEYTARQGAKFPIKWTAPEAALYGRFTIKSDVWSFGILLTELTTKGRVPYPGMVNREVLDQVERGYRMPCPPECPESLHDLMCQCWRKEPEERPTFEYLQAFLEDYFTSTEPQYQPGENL
T1 sequence (P05622 599-961 limits assumed): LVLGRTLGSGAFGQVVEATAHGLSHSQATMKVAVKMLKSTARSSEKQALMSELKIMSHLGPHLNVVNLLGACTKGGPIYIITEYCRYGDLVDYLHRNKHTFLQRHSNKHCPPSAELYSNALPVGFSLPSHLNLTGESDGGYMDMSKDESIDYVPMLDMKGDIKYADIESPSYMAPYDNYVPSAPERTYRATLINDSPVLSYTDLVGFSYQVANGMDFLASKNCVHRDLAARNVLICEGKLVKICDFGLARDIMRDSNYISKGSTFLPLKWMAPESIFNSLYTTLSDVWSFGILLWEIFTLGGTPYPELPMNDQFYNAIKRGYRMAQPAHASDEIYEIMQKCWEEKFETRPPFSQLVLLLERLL

With `CCN(CC)CCCNc1ncc2cc(-c3c(Br)cccc3Br)c(N)nc2n1` [Example 61, 6-(2,6-Dibromo-phenyl)-N^2-[3-diethylamino-propyl)-pyrido[2,3-d]pyrimidine-2,7-diamine], the IC50 in assay [1] is 45600 nM; in assay [2] it was 7850 nM; at C-src kinase it was 764 nM.
For the compound `CN(C)CC(C)(C)CNc1ncc2cc(-c3c(Cl)cccc3Cl)c(NC(=O)NC(C)(C)C)nc2n1` [Example 30, 1-tert-Butyl-3-[6-(2,6-dichlorophenyl)-2-[3-dimethylamino-2,2-dimethyl-propylamino)-pyrido[2,3-d]pyrimidin-7-yl]-urea], the IC50 is 1780 nM in assay [1] and 264 nM in assay [2]. Also, the inhibition at 50 µM at C-src kinase (at 50 μM) is 46.8%.
In the case of `CC(C)(C)NC(=O)Nc1nc2nc(N)ncc2cc1-c1ccncc1` [Example 110, 1-(2-Amino-6-pyridin-4-yl-pyrido[2,3-d]pyrimidin-7-yl)-3-tert-butyl-urea], the IC50 is 11500 nM in assay [1] and 12800 nM in assay [2]. Besides, the inhibition at 50 µM at C-src kinase (at 50 μM) stood at 27.5%.
As to `CCN(CC)CCCCNc1ncc2cc(-c3c(Cl)cccc3Cl)c(N)nc2n1` [Example 53, 6-(2,6-Dichlorophenyl)-N^2-(4-diethylamino-butyl)-pyrido[2,3-d]pyrimidine-2,7-diamine], the 50% inhibitory concentration (IC50) was determined as 7080 nM in assay [1], 693 nM in assay [2] and 153 nM on C-src kinase.
For `CC(C)(C)NC(=O)Nc1nc2nc(N)ncc2cc1-c1c(F)cccc1F` [Example 87, 1-[2-Amino-6-(2,6-difluoro-phenyl)-pyrido[2,3-d]pyrimidin-7-yl]-3-tert-butyl-urea], the 50% inhibitory concentration (IC50) in assay [1] stood at 1880 nM; in assay [2], 118 nM. Besides, at C-src kinase, the inhibition at 50 µM is 92.7%.
For `CCN(CC)CCNc1ncc2cc(-c3c(Cl)cccc3Cl)c(N)nc2n1` [Example 65, 6-(2,6-Dichlorophenyl)-N^2-(2-diethylamino-ethyl)-pyrido[2,3-d]pyrimidine-2,7-diamine], the inhibition at 50 µM in assay [1] stood at 29.6%; at C-src kinase (at 50 μM) it was 95%. Also, the IC50 in assay [2] is 17000 nM.
As to `CN1CCN(CCCNc2ncc3cc(-c4c(Cl)cccc4Cl)c(NC(=O)Nc4ccc(Cl)cc4)nc3n2)CC1` [Example 45, 1-(4-Chloro-phenyl)-3-{6-(2,6-dichlorophenyl)-2-[3-(4-methyl-piperazin-1-yl)-propylamino]-pyrido[2,3-d]pyrimidin-7-yl}-urea], the 50% inhibitory concentration (IC50) in assay [1] was 1850 nM; in assay [2] it was 198 nM; on C-src kinase, 40 nM.
On the same counts, the results for `Cc1cccc(-c2cc3cnc(N)nc3nc2NC(=O)NC(C)(C)C)c1C` [Example 93, 1-[2-Amino-6-(2,3-dimethyl-phenyl)-pyrido[2,3-d]pyrimidin-7-yl]-3-tert-butyl-urea] are 6050 nM, 343 nM and 4170 nM.
Turning to `CC(C)(C)NC(=O)Nc1nc2nc(N)ncc2cc1-c1cccc(Cl)c1Cl` [Example 84, 1-[2-Amino-6-(2,3-dichlorophenyl)-pyrido[2,3-d]pyrimidin-7-yl]-3-tert-butyl-urea], the concentration for half-maximal inhibition (IC50) in assay [1] came to 2260 nM; in assay [2], 162 nM; at C-src kinase it was 3820 nM.
Consider `CC(C)(C)NC(=O)Nc1nc2nc(N)ncc2cc1-c1c(Cl)cccc1Br` [Example 105, 1-[2-Amino-6-(2-bromo-6-chloro-phenyl)-pyrido[2,3-d]pyrimidin-7-yl]-3-tert-butyl-urea], for which the figures for the IC50 (in assay [1]; in assay [2]; on C-src kinase) were 618 nM, 181 nM and 214 nM, respectively.
As to `CN1CCN(CCCNc2ncc3cc(-c4c(Cl)cccc4Cl)c(NC(=O)Nc4ccc(C(F)(F)F)cc4)nc3n2)CC1` [Example 48, 1-{6-(2,6-Dichlorophenyl)-2-[3-(4-methyl-piperazin-1-yl)-propylamino]-pyrido[2,3-d]pyrimidin-7-yl}-3-(4-trifluoromethyl-phenyl)-urea], the half-maximal inhibitory concentration (IC50) in assay [1] amounted to 5320 nM; in assay [2], 613 nM; at C-src kinase, 260 nM.
On to `Nc1nc2nc(NCCCN3CCOCC3)ncc2cc1-c1c(Cl)cccc1Cl` [Example 58, 6-(2,6-Dichlorophenyl)-N^2-(3-morpholin-4-yl-propyl)-pyrido[2,3-d]pyrimidine-2,7-diamine], for which the IC50 in assay [1] turned out to be 19000 nM; in assay [2], 3460 nM. The inhibition at 50 µM at C-src kinase (at 50 μM) was found to be 110%.
As to `CCCNC(=O)Nc1nc2nc(N)ncc2cc1-c1c(Cl)cccc1Cl` [Example 26, 1-[2-Amino-6-(2,6-dichlorophenyl)-pyrido[2,3-d]pyrimidin-7-yl]-3-propyl-ure], the half-inhibitory concentration (IC50) in assay [1] came out at 1080 nM; in assay [2], 116 nM; at C-src kinase, 39.5 nM.
Consider `CN1CCN(CCCNc2ncc3cc(-c4c(Cl)cccc4Cl)c(N)nc3n2)CC1` [Example 36, N^2-[3-(4-methyl-piperazin-1-yl)-propyl]-6-(2,6-dichlorophenyl)-pyrido[2,3-d]pyrimidine-2,7-diamine], for which the values for the IC50 (in assay [1]; in assay [2]; at C-src kinase) were 22900 nM, 523 nM and 184 nM, respectively.
Consider `CC(C)(C)NC(=O)Nc1nc2nc(N)ncc2cc1-c1cccnc1` [Example 108, 1-(2-Amino-6-pyridin-3-yl-pyrido[2,3-d]pyrimidin-7-yl)-3-tert-butyl-urea], for which the half-maximal inhibitory concentration (IC50) in assay [1] turned out to be 13700 nM; in assay [2], 4480 nM; at C-src kinase it was 5660 nM.
Take `Cc1cc(C)c(-c2cc3cnc(N)nc3nc2NC(=O)NC(C)(C)C)c(C)c1` [Example 97, 1-[2-Amino-6-(2,4,6-trimethyl-phenyl)-pyrido[2,3-d]pyrimidin-7-yl]-3-tert-butyl-urea]: the IC50 stood at 1730 nM in assay [1] and 340 nM in assay [2]. Moreover, at C-src kinase, the inhibition at 50 µM was determined as 28.9%.
On to `Cc1cc(C)c(C)c(-c2cc3cnc(N)nc3nc2N)c1C` [Example 98, 6-(2,3,5,6-Tetramethyl-phenyl)-pyrido[2,3-d]pyrimidine-2,7-diamine], for which the figures for the inhibition at 50 µM (in assay [1]; on C-src kinase (at 50 μM)) were 34.3% and 0.5%, respectively. Also, the IC50 in assay [2] worked out at 1800 nM.
Turning to `CCCS(=O)(=O)Nc1nc2nc(N)ncc2cc1-c1c(Cl)cccc1Cl` [Example 106, Propane-1-sulfonic acid [2-amino-6-(2,6-dichlorophenyl)-pyrido[2,3-d]pyrimidin-7-yl]-amide], the IC50 in assay [1] worked out at 4800 nM; in assay [2], 361 nM; on C-src kinase, 236 nM.
Consider `CCCCCCCCNC(=O)Nc1nc2nc(NCCCN3CCN(C)CC3)ncc2cc1-c1c(Cl)cccc1Cl` [Example 47, 1-{6-(2,6-Dichlorophenyl)-2-[3-(4-methyl-piperazin-1-yl)-propylamino]-pyrido[2,3-d]pyrimidin-7-yl}-3-octyl-urea], for which the IC50 was 6170 nM in assay [1], 637 nM in assay [2] and 161 nM at C-src kinase.
With `COc1cccc(-c2cc3cnc(N)nc3nc2NC(=O)NC(C)(C)C)c1` [Example 103, 1-[2-Amino-6-(3-methoxy-phenyl)-pyrido[2,3-d]pyrimidin-7-yl]-3-tert-butyl-urea], the IC50 in assay [1] turned out to be 19600 nM; in assay [2] it was 300 nM; at C-src kinase, 36400 nM.
Turning to `Nc1ncc2cc(-c3c(F)cccc3F)c(N)nc2n1` [Example 63, 6-(2,6-Difluoro-phenyl)-pyrido[2,3-d]pyrimidine-2,7-diamine], the IC50 in assay [1] was 7010 nM; in assay [2], 543 nM; on C-src kinase, 1780 nM.

As usually defined, the IC50 is the midpoint of a concentration-inhibition curve. As usually defined, the inhibition is the drop in the measured response relative to a control, in per cent.

These data come from patent US5733913A, “6-Aryl pyrido[2,3-d] pyrimidines and naphthyridines for inhibiting protein tyrosine kinase mediated cellular proliferation” (priority 1995, dated 1998).
